US9115148B2, “Spirocyclic derivatives as histone deacetylase inhibitors” (DAC S.R.L., priority 2008, dated 2015)

Tests used:
K562 cells = test: Cell growth, CellTiter-Glo Luminescent Cell Viability Assay, K562; assay type: cell-based; details: Homo sapiens, 72 h incubation, read-out: IC50 antiproliferative assay K562
From the text: (§1) CellTiter-Glo® Luminescent Cell Viability Assay (Promega) is a homogeneous method of determining the number of viable cells in culture based on quantitation of the present ATP, which indicates the presence of metabolically active cells. The homogeneous assay procedure involves addition of a single reagent (CellTiter-Glo® Reagent) directly to the cells, which leads to cell lysis and generation of a luminescent signal proportional to the amount of the ATP and the number of cells present in culture. The assay relies on the properties of a proprietary thermostable luciferase (Ultra-Glo® recombinant luciferase), which generates a luminescent signal.
(§2) K562, A549 and HCT-116 cells, in exponential growth, were incubated for 72 h with different concentrations of the inhibitors. After 72 h, a volume of CellTiter-Glo® Reagent equal to the volume of cell culture medium was added. The content was mixed for 2 min to induce cell lysis. The luminescence was recorded after further 10 min at RT in order to obtain a stabilized luminescent signal.
(§3) The IC50 was calculated using GraphPad Software.
(§4) IC50 results were allocated to one of 3 ranges as follows: Range A: IC50≦1.0 μM; Range B: from 1.0 to 3.0 μM; Range C: IC50≧3.0 μM.

[1] = test system: HDAC (nuclear fraction of Hela cells); test: Assay of enzyme inhibition of HDAC (BIOMOL Kit); assay type: biochemical; details: substrate 200 μM, 15 min at RT
Description: 2.2 Assay of Enzyme Inhibition of HDAC
The in-vitro activity of HDAC inhibitors was assayed using a BIOMOL Kit, according to the instructions from the manufacturer (Biomolecular Research Laborator). 15 μl of 30× diluted nuclear fraction of Hela cells, was diluted to 50 μl with the assay buffer containing the HDAC inhibitor and the substrate (lysine with acetylated amino group on the side chain) at a concentration of 200 μM. The samples were incubated for 15 min at RT and then exposed to a developer (10 min at RT). In this last step a fluorophore was produced, whose fluorescence was measured using an excitation wavelength of 355 nm and an emission at 460 nm. The IC50 was calculated using GraphPad Software.

A549 cells = test: Cell growth, CellTiter-Glo Luminescent Cell Viability Assay, A549; assay type: cell-based; details: Homo sapiens, 72 h incubation, read-out: IC50 antiproliferative assay A549
From the text: as §1, §2, §3, §4

HCT-116 cells = test: Cell growth, CellTiter-Glo Luminescent Cell Viability Assay, HCT-116; assay type: cell-based; details: Homo sapiens, HCT116 cells, 72 h incubation, read-out: IC50 antiproliferative assay HCT116
From the text: as §1, §2, §3, §4

| Compound | IC50 (K562 cells) [nM] | IC50 [1] [nM] | IC50 (A549 cells) [nM] | IC50 (HCT-116 cells) [nM] |
| --- | --- | --- | --- | --- |
| CC(=O)N1CCC2(CC1)Oc1ccc(/C=C/C(=O)NO)cc1C2=O [Example 22, (E)-3-{1′-Acetyl-3-oxo-spiro[benzofuran-2(3H), 4′-piperidin]-5-yl}-N-hydroxy-acrylamide] | ≥ 3000 | > 1000 | ≥ 3000 | ≥ 3000 |
| CS(=O)(=O)N1CCC2(CC1)CC(=O)c1cc(/C=C/C(=O)NO)ccc1O2 [Example 43, (E)-3-{1′-Methanesulfonyl-4-oxo-spiro[chromane-2,4′-piperidine]-6-yl}-N-hydroxy-acrylamide] | ≥ 3000 | 100 to 1000 | ≥ 3000 | ≥ 3000 |
| O=C(/C=C/c1ccc2c(c1)OC1(CCN(C(=O)c3ccccc3)CC1)CC2=O)NO [Example 11, (E)-3-{1′-Benzoyl-4-oxo-spiro[chromane-2,4′-piperidine]-7-yl}-N-hydroxy-acrylamide] | ≥ 3000 | 100 to 1000 | ≥ 3000 | ≥ 3000 |
| CC(=O)N1CCC2(CC1)CC(=O)c1ccc(/C=C/C(=O)NO)cc1O2 [Example 10, (E)-3-{1′-Acetyl-4-oxo-spiro[chromane-2,4′-piperidine]-7-yl}-N-hydroxy-acrylamide] | ≥ 3000 | > 1000 | ≥ 3000 | ≥ 3000 |
| O=C(/C=C/c1ccc2c(c1)C(=O)CC1(CCN(C(=O)c3ccccc3)CC1)O2)NO [Example 4, (E)-3-{1′-Benzoyl-4-oxo-spiro[chromane-2,4′-piperidine]-6-yl}-N-hydroxy-acrylamide] | 1000 to 3000 | 100 to 1000 | ≥ 3000 | 1000 to 3000 |
| O=C(/C=C/c1ccc2c(c1)C(=O)N(Cc1ccccc1)C1(CCN(Cc3ccc(F)cc3)CC1)O2)NO [Example 83, (E)-3-{1′-(4-Fluoro-benzyl)-3,4-dihydro-3-benzyl-4-oxo-spiro[2H-(1,3)-benzoxazine-2,4′-piperidin]-6-yl}-N-hydroxy-acrylamide] | 1000 to 3000 | 100 to 1000 | ≥ 3000 | 1000 to 3000 |
| O=C(/C=C/c1ccc2c(c1)C(=O)CC1(CCN(Cc3ccncc3)CC1)O2)NO [Example 42, (E)-3-{1′-(Pyridin-4-ylmethyl)-4-oxo-spiro[chromane-2,4′-piperidine]-6-yl}-N-hydroxy-acrylamide] | 1000 to 3000 | 100 to 1000 | 1000 to 3000 | ≤ 1000 |
| O=C(/C=C/c1ccc2c(c1)C(=O)CC1(CCN(S(=O)(=O)c3ccccc3)CC1)O2)NO [Example 44, (E)-3-{1′-Phenylsulfonyl-4-oxo-spiro[chromane-2,4′-piperidine]-6-yl}-N-hydroxy-acrylamide] | 1000 to 3000 | 100 to 1000 | ≥ 3000 | 1000 to 3000 |
| O=C(/C=C/c1ccc2c(c1)C(=O)CC1(CCN(C(=O)Nc3ccccc3)CC1)O2)NO [Example 48, (E)-3-{1′-Phenylcarbamoyl-4-oxo-spiro[chromane-2,4′-piperidine]-6-yl}-N-hydroxy-acrylamide] | 1000 to 3000 | 100 to 1000 | ≥ 3000 | 1000 to 3000 |
| O=C(/C=C/c1ccc2c(c1)C(=NOCc1ccccc1)CC1(CCN(Cc3ccccc3)CC1)O2)NO (racemic) [Example 17, (E)-3-{1′-Benzyl-4-benzyloxyimino-spiro[chromane-2,4′-piperidine]-6-yl}-N-hydroxy-acrylamide] | 1000 to 3000 | > 1000 | 1000 to 3000 | 1000 to 3000 |
| O=C(/C=C/c1ccc2c(c1)C(=O)N(Cc1ccccc1)C1(CCN(CCc3ccccc3)CC1)O2)NO [Example 84, (E)-3-{1′-(2-Phenyl-ethyl)-3,4-dihydro-3-benzyl-4-oxo-spiro[2H-(1,3)-benzoxazine-2,4′-piperidin]-6-yl}-N-hydroxy-acrylamide] | 1000 to 3000 | 100 to 1000 | 1000 to 3000 | 1000 to 3000 |
| O=C(/C=C/c1ccc2c(c1)CCC1(CCN(Cc3ccccc3)CC1)O2)NO [Example 13, (E)-3-{1′-Benzyl-spiro[chromane-2,4′-piperidine]-6-yl}-N-hydroxy-acrylamide] | ≥ 3000 | > 1000 | ≥ 3000 | ≥ 3000 |
| CCOC(=O)N1CCC2(CC1)Oc1ccc(/C=C/C(=O)NO)cc1C2=O [Example 24, (E)-3-{1′-Ethyloxycarbonyl-3-oxo-spiro[benzofuran-2(3H), 4′-piperidin]-5-yl}-N-hydroxy-acrylamide] | 1000 to 3000 | > 1000 | ≥ 3000 | ≥ 3000 |
| O=C(/C=C/c1ccc2c(c1)C(=O)N(Cc1ccccc1)C1(CCN(Cc3ccccc3)CC1)O2)NO [Example 80, (E)-3-{1′-Benzyl-3,4-dihydro-3-benzyl-4-oxo-spiro[2H-(1,3)-benzoxazine-2,4′-piperidin]-6-yl}-N-hydroxy-acrylamide] | 1000 to 3000 | 100 to 1000 | 1000 to 3000 | 1000 to 3000 |
| O=C(/C=C/c1ccc2c(c1)C(=O)NC1(CCN(Cc3ccccc3)CC1)N2)NO [Example 26, (E)-3-{1-Benzyl-3′,4′-dihydro-4′-oxo-spiro[piperidine-4,2′(1′H)-quinazoline]-6′-yl}-N-hydroxy-acrylamide] | ≥ 3000 | 100 to 1000 | ≥ 3000 | ≥ 3000 |

Now from value to compound:

| IC50 (K562 cells) [nM] | IC50 [1] [nM] | IC50 (A549 cells) [nM] | IC50 (HCT-116 cells) [nM] | Compound |
| --- | --- | --- | --- | --- |
| 1000 to 3000 | < 100 | 1000 to 3000 | ≤ 1000 | O=C(/C=C/c1ccc2c(c1)/C(=N/O)CC1(CCN(Cc3ccccc3)CC1)O2)NO [Example 19, (E)-3-{1′-Benzyl-4-hydroxyimino-spiro[chromane-2,4′-piperidine]-6-yl}-N-hydroxy-acrylamide] |
| ≤ 1000 | 100 to 1000 | 1000 to 3000 | ≤ 1000 | Cc1ccc(CN2CCC3(CC2)CC(=O)c2cc(/C=C/C(=O)NO)ccc2O3)cc1 [Example 30, (E)-3-{1′-(4-Methyl-benzyl)-4-oxo-spiro[chromane-2,4′-piperidine]-6-yl}-N-hydroxy-acrylamide] |
| ≤ 1000 | 100 to 1000 | 1000 to 3000 | ≤ 1000 | O=C(/C=C/c1ccc2c(c1)C(=O)CC1(CCN(Cc3ccc(F)cc3)CC1)O2)NO [Example 36, (E)-3-{1′-(4-Fluoro-benzyl)-4-oxo-spiro[chromane-2,4′-piperidine]-6-yl}-N-hydroxy-acrylamide] |
| ≤ 1000 | 100 to 1000 | 1000 to 3000 | ≤ 1000 | O=C(/C=C/c1ccc2c(c1)C(=O)CC1(CCN(Cc3ccc(-c4ccccc4)cc3)CC1)O2)NO [Example 52, (E)-3-{1′-(Biphenyl-4-ylmethyl)-4-oxo-spiro[chromane-2,4′-piperidine]-6-yl}-N-hydroxy-acrylamide] |
| 1000 to 3000 | 100 to 1000 | 1000 to 3000 | ≤ 1000 | CON=C1CC2(CCN(Cc3ccccc3)CC2)Oc2ccc(/C=C/C(=O)NO)cc21 (racemic) [Example 18, (E)-3-{1′-Benzyl-4-methyloxyimino-spiro[chromane-2,4′-piperidine]-6-yl}-N-hydroxy-acrylamide] |
| ≤ 1000 | 100 to 1000 | ≤ 1000 | ≤ 1000 | COc1cccc(CCN2CCC3(CC2)CC(=O)c2cc(/C=C/C(=O)NO)ccc2O3)c1 [Example 60, (E)-3-{1′-[2-(3-Methoxy-phenyl)-ethyl]-4-oxo-spiro[chromane-2,4′-piperidine]-6-yl}-N-hydroxy-acrylamide] |
| ≤ 1000 | 100 to 1000 | 1000 to 3000 | 1000 to 3000 | O=C(/C=C/c1ccc2c(c1)C(=O)CC1(CCN(Cc3cccc(F)c3)CC1)O2)NO [Example 35, (E)-3-{1′-(3-Fluoro-benzyl)-4-oxo-spiro[chromane-2,4′-piperidine]-6-yl}-N-hydroxy-acrylamide] |
| ≤ 1000 | < 100 | ≤ 1000 | ≤ 1000 | O=C(/C=C/c1ccc2c(c1)C(=O)CC1(CCN(Cc3c[nH]c4ccccc34)CC1)O2)NO [Example 50] |
| ≤ 1000 | < 100 | ≤ 1000 | ≤ 1000 | Cc1[nH]c2ccccc2c1CN1CCC2(CC1)CC(=O)c1cc(/C=C/C(=O)NO)ccc1O2 [Example 51, (E)-3-{1′-(2-Methyl-1H-indol-3-ylmethyl)-4-oxo-spiro[chromane-2,4′-piperidine]-6-yl}-N-hydroxy-acrylamide] |
| ≤ 1000 | < 100 | 1000 to 3000 | ≤ 1000 | O=C(/C=C/c1ccc2c(c1)C(=O)NC1(CCN(Cc3ccccc3)CC1)O2)NO [Example 25, (E)-3-{1′-Benzyl-3,4-dihydro-4-oxo-spiro[2H-(1,3)-benzoxazine-2,4′-piperidin]-6-yl}-N-hydroxy-acrylamide] |
